Where “and” joins values, the source holds several entries; their conditions need not be identical. Equal values may be shown once. Read-outs that look alike come from different tables or passages of the source.
Legend:
[1] = biological target: Human Constitutive (Hu C-20S) β5 Active Subunit (Homo sapiens, UniProt P28074); assay: IC50 determination, human constitutive 20S proteasome β5c (suc-LLVY-AMC hydrolysis); type: biochemical; conditions: Table 2; several values in a cell are repeat determinations; read-out: Hu c-20S IC50
[2] = biological target: Mtb20SOG (Mycobacterium tuberculosis, UniProt P9WHT9); assay: biochemical
Mtb20SOG, sequence (P9WHT9 58-291): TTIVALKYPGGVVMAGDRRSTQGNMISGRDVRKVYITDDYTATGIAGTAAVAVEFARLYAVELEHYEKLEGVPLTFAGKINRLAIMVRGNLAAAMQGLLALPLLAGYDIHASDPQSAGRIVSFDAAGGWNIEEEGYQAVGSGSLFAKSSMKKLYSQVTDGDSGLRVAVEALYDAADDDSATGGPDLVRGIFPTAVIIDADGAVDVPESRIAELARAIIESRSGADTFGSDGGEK

[3] = Table 2, several values in a cell are repeat determinations

Row | Structure (SMILES) | IC50 [1] | IC50 [2] | IC50 [2, 3]
1 | C[C@@H](NC(=O)[C@H](CC(=O)N1CCC[C@@H]1C)NC(=O)CCC(C)(C)C)c1nc2ccccc2[nH]1 [CF-503190] | 17300 nM | 2660 nM | 
2 | C[C@H]1CCCCN1C(=O)C[C@H](NC(=O)CCC(C)(C)C)C(=O)NCc1nc2ccccc2[nH]1 [CF-503191] | 10400 nM | 456 nM | 
3 | CC(C)CCC(=O)N[C@@H](CC(=O)N1CCCC[C@@H]1C)C(=O)N[C@H](C)c1nc2ccccc2[nH]1 [CF-503192] | 15600 nM |  | 4900 nM
4 | CC(C)CCC(=O)N[C@@H](CC(=O)N1CCCC[C@@H]1C)C(=O)NCc1nc2ccccc2[nH]1 [CF-503193] | 17600 nM |  | 647 nM
5 | CCN(CC)C(=O)C[C@H](NC(=O)CCC(C)C)C(=O)N[C@@H](C)c1nc(-c2ccc(F)cc2F)c[nH]1 [CF-503197] | 7280 nM | 1110 nM | 
6 | CC(C)CCC(=O)N[C@@H](CC(=O)N1CCCC[C@@H]1C)C(=O)N[C@@H](C)c1ncc(-c2ccc(F)cc2F)[nH]1 [CF-503198] | 7250 nM |  | 1570 nM
7 | CC(C)CCC(=O)N[C@@H](CC(=O)N1CCCC[C@H]1C)C(=O)N[C@@H](C)c1nc(-c2ccc(F)cc2F)c[nH]1 [CF-503199] | 10500 nM | 1000 nM | 
8 | CC(C)CCC(=O)N[C@@H](CC(=O)N(C)C(C)C)C(=O)N[C@@H](C)c1ncc(-c2ccc(F)cc2F)[nH]1 [CF-503200] | 14900 nM |  | 919 nM
9 | C[C@H](NC(=O)N(CC(=O)N1CCCC[C@@H]1C)NC(=O)OC(C)(C)C)C(=O)NCc1ccc(F)cc1F [CF-503201] | 8500 nM and > 8000 nM |  | 8400 nM and > 8000 nM
10 | C[C@H](NC(=O)N(CC(=O)N1CCCC[C@@H]1C)NC(=O)CCC(C)(C)C)C(=O)NCc1ccc(F)cc1F [CF-503202] | 8500 nM and 9120 nM |  | 8320 nM and 8800 nM
11 | C[C@H](NC(=O)[C@H](CC(=O)N1CCCC[C@@H]1C)NC(=O)CCC1CC1)c1ncc(-c2ccc(F)cc2F)[nH]1 [CF-503204] | 11600 nM |  | 98 nM
12 | C[C@H](NC(=O)[C@H](CC(=O)N1CCCC[C@@H]1C)NS(=O)(=O)CCC1CC1)c1ncc(-c2ccc(F)cc2F)[nH]1 [CF-503206] | 6160 nM |  | 506 nM
13 | CC(C)CCC(=O)N[C@@H](CC(=O)N1CCOC[C@@H]1C)C(=O)N[C@@H](C)c1nc(-c2ccc(F)cc2F)c[nH]1 [CF-503210] | 15200 nM | 407 nM | 
14 | CC(C)CCC(=O)N[C@@H](CC(=O)N1CCCC[C@@H]1C(F)(F)F)C(=O)N[C@@H](C)c1nc(-c2ccc(F)cc2F)c[nH]1 [CF-503212] | 4870 nM | 346 nM | 
15 | CC[C@H]1CCCCN1C(=O)C[C@H](NC(=O)CCC(C)C)C(=O)N[C@@H](C)c1ncc(-c2ccc(F)cc2F)[nH]1 [CF-503213] | 4490 nM and 4430 nM |  | 33 nM and 29 nM
16 | CC(C)CCC(=O)N[C@@H](CC(=O)N1CCCCCC1)C(=O)N[C@@H](C)c1nc(-c2ccc(F)cc2F)c[nH]1 [CF-503214] | 10200 nM | 667 nM | 
17 | CC[C@H]1CCCCN1C(=O)C[C@H](NC(=O)CCC(C)C)C(=O)N[C@@H](C)c1nc2ccccc2[nH]1 [CF-503216] | 14800 nM and 14500 nM | 296 nM and 333 nM | 
18 | CC(C)CCC(=O)N[C@@H](CC(=O)N1CCCCC1C(C)C)C(=O)N[C@@H](C)c1ncc(-c2ccc(F)cc2F)[nH]1 (some centres unmarked) [CF-503218] | 3180 nM |  | 136 nM and 168 nM
19 | CC[C@H]1CCCCN1C(=O)C[C@H](NC(=O)CCC(C)C)C(=O)N[C@@H](C)c1nc2cc(F)cc(F)c2[nH]1 [CF-503219] | 4060 nM and 4500 nM | 793 nM and 840 nM | 
20 | CC[C@H]1CCCCN1C(=O)C[C@H](NC(=O)CCC(C)(C)C)C(=O)N[C@@H](C)c1nc2c(F)cccc2[nH]1 [CF-503222] | 11200 nM and 12300 nM and 11700 nM |  | 15 nM and 29 nM and 41 nM
21 | CC[C@H]1CCCCN1C(=O)C[C@H](NC(=O)CCC(C)C)C(=O)N[C@@H](C)c1nc2c(F)cccc2[nH]1 [CF-503223] | 10600 nM and 10200 nM | 28 nM and 33 nM | 
22 | CC(C)CCC(=O)N[C@@H](CC(=O)N1CCCC[C@@H]1C)C(=O)N[C@@H](C)c1nc2c(F)cccc2[nH]1 [CF-503225] | 16200 nM and 16900 nM |  | 97 nM and 118 nM
23 | C[C@H](NC(=O)[C@H](CC(=O)N1CCCC[C@@H]1C)NC(=O)CCC(C)(C)C)c1nc2c(F)cccc2[nH]1 [CF-503227] | 4830 nM and 6490 nM |  | 79 nM and 81 nM
24 | CC[C@H]1CCCCN1C(=O)C[C@H](NC(=O)CCC(C)C)C(=O)N[C@@H](C)c1nc2cc(F)c(F)cc2[nH]1 [CF-503229] | 5000 nM | 6000 nM | 
25 | CC[C@H]1CCCCN1C(=O)C[C@H](NS(=O)(=O)CCC(C)C)C(=O)N[C@@H](C)c1nc2c(F)cccc2[nH]1 [CF-503230] | 17800 nM and 8600 nM |  | 400 nM and 520 nM
26 | C[C@H](NC(=O)[C@@H](N)CC(=O)N1CCC[C@@H]1c1ccccc1)c1ncc(-c2ccccc2F)[nH]1 [CF-503240] | 94000 nM |  | 8500 nM
27 | C[C@H](NC(=O)[C@H](CC(=O)N1CCC[C@@H]1c1ccccc1)Nc1nc2ccccc2o1)c1ncc(-c2ccccc2F)[nH]1 [CF-503242] | 16800 nM and 20600 nM |  | 753 nM and 677 nM
28 | Cc1cc(C(=O)N[C@@H](CC(=O)N2CCCC[C@@H]2C)C(=O)N[C@@H](C)c2nc3c(F)cccc3[nH]2)no1 [CF-503274] | 7090 nM | 69 nM | 

Row | Structure (SMILES) | IC50 [1] | IC50 [2] | IC50 [2, 3]
29 | CC[C@H]1CCCCN1C(=O)C[C@H](NC(=O)CCc1ccccc1)C(=O)N[C@@H](C)c1nc2c(F)cccc2[nH]1 [CF-503291] | 2640 nM and 3390 nM | 7 nM and 6 nM | 
30 | CC[C@H]1CCCCN1C(=O)C[C@H](NC(=O)NCc1ccccc1)C(=O)N[C@@H](C)c1nc2c(F)cccc2[nH]1 [CF-503304] | 9360 nM and 9400 nM | 359 nM and 327 nM | 
31 | CC[C@H]1CCCCN1C(=O)C[C@H](NC(=O)CC1CC1)C(=O)N[C@@H](C)c1nc2c(F)cccc2[nH]1 [CF-503318] | 16900 nM | 112 nM | 
32 | CC[C@H]1CCCCN1C(=O)C[C@H](NC(=O)CC(F)(F)F)C(=O)N[C@@H](C)c1nc2c(F)cccc2[nH]1 [CF-503319] | 4200 nM | 320 nM | 
33 | CC[C@H]1CCCCN1C(=O)C[C@H](Nc1nc2ccccc2o1)C(=O)N[C@@H](C)c1nc2c(F)cccc2[nH]1 [CF-503321] | 4500 nM and 5200 nM |  | 271 nM and 374 nM
34 | CC[C@H]1CCCCN1C(=O)C[C@H](NC(=O)CCN(C)C)C(=O)N[C@@H](C)c1nc2c(F)cccc2[nH]1 [CF-503356] | 6400 nM | 6400 nM | 
35 | CC[C@H]1CCCCN1C(=O)C[C@H](Nc1nc2cc(C)ccc2o1)C(=O)N[C@@H](C)c1nc2c(F)cccc2[nH]1 [CF-503357] | 1900 nM | 260 nM | 
36 | CC[C@H]1CCCCN1C(=O)C[C@H](Nc1nc2ccc(C)cc2o1)C(=O)N[C@@H](C)c1nc2c(F)cccc2[nH]1 [CF-503360] | 1120 nM and 1430 nM and 1420 nM and 1440 nM |  | 125 nM and 190 nM and 353 nM and 361 nM
37 | CC(NC(=O)C(CC(=O)N1CCCCC1C)NC(=O)C1CC1c1ccccc1)c1nc2c(F)cccc2[nH]1 (centres unmarked) [CF-503363] | 8000 nM | 50.7 nM | 
38 | CC(C)C1CC1C(=O)N[C@@H](CC(=O)N1CCCC[C@@H]1C)C(=O)N[C@@H](C)c1nc2c(F)cccc2[nH]1 (some centres unmarked) [CF-503381] | 2470 nM |  | 41 nM and 36 nM
39 | CC[C@H]1CCCCN1C(=O)C[C@H](NC(=O)[C@@H]1C[C@H]1c1ccccc1)C(=O)N[C@@H](C)c1nc2c(F)cccc2[nH]1 [CF-503382] | 12000 nM |  | 166 nM
40 | CC[C@H]1CCCCN1C(=O)C[C@H](Nc1nc(C(C)C)no1)C(=O)NCc1nc2c(F)cccc2[nH]1 [CF-503417] | 3600 nM and 2990 nM |  | 1350 nM and 1770 nM
41 | CC[C@H]1CCCCN1C(=O)C[C@H](Nc1nc(Cc2ccc(F)cc2)no1)C(=O)N[C@@H](C)c1nc2c(F)cccc2[nH]1 [CF-503419] | 1360 nM and 1200 nM | 257 nM and 319 nM | 
42 | CC[C@H]1CCCCN1C(=O)C[C@H](Nc1nc2ccccc2s1)C(=O)N[C@@H](C)c1nc2c(F)cccc2[nH]1 [CF-503445] | 1190 nM |  | 1180 nM
43 | CC[C@H]1CCCCN1C(=O)C[C@H](NC(=O)N(C)Cc1ccccc1)C(=O)N[C@@H](C)c1nc2c(F)cccc2[nH]1 [CF-503451] | 3330 nM and 3700 nM | 176 nM and 184 nM | 
44 | CC[C@H]1CCCCN1C(=O)C[C@H](NC(=O)N1CCOCC1)C(=O)N[C@@H](C)c1nc2c(F)cccc2[nH]1 [CF-503453] | 4450 nM |  | 4690 nM
45 | CC[C@H]1CCCCN1C(=O)C[C@H](NC(=O)N1CCCCC1)C(=O)N[C@@H](C)c1nc2c(F)cccc2[nH]1 [CF-503454] | 3000 nM |  | 765 nM
46 | CC[C@H]1CCCCN1C(=O)C[C@H](NC(=O)N(C)CC(C)C)C(=O)N[C@@H](C)c1nc2c(F)cccc2[nH]1 [CF-503457] | 5030 nM |  | 2360 nM
47 | CC(NC(=O)C(CC(=O)N1CCCCC1C)NC(=O)N(C)Cc1ccccc1)c1nc2c(F)cccc2[nH]1 (centres unmarked) [CF-503460] | 17200 nM | 272 nM | 
48 | CC[C@H]1CCCCN1C(=O)C[C@H](NC(=O)OCc1ccccc1)C(=O)N[C@@H](C)c1nc2c(F)cccc2[nH]1 [CF-503461] | 5800 nM and 8200 nM |  | 68 nM and 75 nM
49 | CC(NC(=O)C(CC(=O)N1CCCCC1C)NC(=O)OCc1ccccc1)c1nc2c(F)cccc2[nH]1 (centres unmarked) [CF-503462] | 14800 nM | 120 nM | 
50 | CC(C)COC(=O)NC(CC(=O)N1CCCCC1C)C(=O)NC(C)c1nc2c(F)cccc2[nH]1 (centres unmarked) [CF-503463] | 2500 nM | 1140 nM | 
51 | CC[C@H]1CCCCN1C(=O)C[C@H](NC(=O)C1CC(C)(C)C1)C(=O)N[C@@H](C)c1nc2c(F)cccc2[nH]1 [CF-503464] | 1260 nM | 10 nM and 19 nM | 
52 | CC(NC(=O)C(CC(=O)N1CCCCC1C)NC(=O)C1CC(C)(C)C1)c1nc(-c2ccc(F)cc2F)c[nH]1 (centres unmarked) [CF-503474] | 5650 nM | 14 nM | 
53 | CC(NC(=O)C(CC(=O)N1CCCCC1C)NC(=O)C1CC1C(C)C)c1nc(-c2ccc(F)cc2F)c[nH]1 (centres unmarked) [CF-503475] | 4770 nM | 34 nM | 
54 | CC(C)c1noc(N[C@@H](CC(=O)N2CCCC[C@@H]2C)C(=O)N[C@@H](C)c2ncc(-c3ccc(F)cc3F)[nH]2)n1 [CF-503477] | 2290 nM |  | 2050 nM
55 | Cc1cc(C(=O)N[C@@H](CC(=O)N2CCCC[C@@H]2C)C(=O)NC(C)c2nc3ccccc3[nH]2)no1 (some centres unmarked) [drawing 395] | 71600 nM |  | 549 nM and 331 nM

Source: US11203613B2, “Peptidomimetic proteasome inhibitors” (CORNELL UNIVERSITY, priority 2017, dated 2021)
